Values quoted from earlier work as cited in US20160000720A1, “Pharmaceutical compositions comprising Tadalafil” (AUROBINDO PHARMA LIMITED, priority 2013, published 2016).

Structure (SMILES): CN1CC(=O)N2[C@H](c3ccc4c(c3)OCO4)c3[nH]c4ccccc4c3C[C@@H]2C1=O [Tadalafil, (6R,12aR)-6-(1,3-benzodioxol-5-yl)-2,3,6,7,12,12a hexa hydro-2-methylpyrazino[1′,2′:1,6]pyrido[3,4-b]indole-1,4-dione]
- solubility in water (in words): practically insoluble in water
- soluble in water in a concentration up to (according to WO 01/08687): up to 2 μg/ml
